Test results: patent publication US12345644B2, “System and method for assessing cellular metabolic activity” (Trustees of Tufts College, priority 2016, dated 2025)

System: HL-1 cardiomyocytes
Conditions: HL-1 cells, CCCP 50 μM, imaged right after exposure, versus vehicle control, n=4 cultures/group
Description: Mouse HL-1 cardiomyocytes are maintained in Claycomb media (Sigma-Alrich). Images are taken right after exposure to low-dose CCCP (50 μM) or vehicle. We prepared 4 dishes for each group, and acquired a total of 16 fields per group (4 fields per dish).
TPEF Data Acquisition: For TPEF imaging, cell cultures are placed in home-made micro-incubator system, which maintained 37° C. and 5% CO2 within a humidified environment throughout the imaging session. […] Images are obtained using a custom-built microscope with a 40×water dipping objective (NA 1.1) or a 25×water dipping objective (NA 0.95, for in vivo imaging only) equipped with a tunable (710-920 nm) Ti: sapphire laser (Mai Tai; Spectra Physics; Mountain View, Calif.). Emission events are registered by a photomultiplier tube (PMT) detector attached to a commercial time-correlated single photon counting (TCSPC) electronics module. To isolate NADH fluorescence, a 460(±20) nm emission filter (Chroma, ET460/40M-2P), corresponding to the NADH emission peak, was placed before the detector. NADH fluorescence images are acquired from this 460 nm detector using 755 nm excitation. FAD fluorescence was isolated using 525(±25) nm emission filter (Chroma, ET525/50M-2P) and 860 nm excitation. […] The laser power and PMT gain are recorded for each image and used to normalize fluorescence intensity.
Optical Redox Ratio Calculation: To process the optical redox ratio, firstly the fluorescence intensity of either NADH or FAD at each pixel was taken as the total photon counts detected during the integration time without spatial binning. For cell cultures, the cytoplasm of cells was selected based on the intensity threshold (FIG. 2F), while the segmentation of cell cytoplasm and lipid areas for BAT tissues was extracted by a combination of fluorescence intensity and lifetime information (FIGS. 71-7F). Pixel-wise redox ratio maps are created by normalized fluorescence intensities as: FAD/(FAD+NADH). […]

carbonyl cyanide m-chlorophenyl hydrazine [CCCP]
bound NADH fraction (NADH fluorescence lifetime, phasor analysis): increase
mitochondrial clustering (β from PSD): increased
optical redox ratio FAD/(NADH+FAD): elevated
